PubChem BioAssay (NCI)
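Test compounds were applied to cells in 96-well plates for 48 hours at 5 doses. Here, GI50 denotes the concentration required for 50% inhibition of growth. TGI denotes the concentration required for complete inhibition of growth.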

What was measured:
Assay in all cases: NCI-60 cell line screen, 48 h
NCI-H226 lung = system: NCI-H226 lung
NCI-H460 lung = system: NCI-H460 lung
NCI-H522 lung = system: NCI-H522 lung
NCI/ADR-RES ovarian = system: NCI/ADR-RES ovarian
OVCAR-3 ovarian = system: OVCAR-3 ovarian
OVCAR-4 ovarian = system: OVCAR-4 ovarian
OVCAR-5 ovarian = system: OVCAR-5 ovarian
OVCAR-8 ovarian = system: OVCAR-8 ovarian
PC-3 prostate = system: PC-3 prostate
RPMI-8226 leukemia = system: RPMI-8226 leukemia
RXF 393 renal = system: RXF 393 renal
SF-268 CNS = system: SF-268 CNS
SF-295 CNS = system: SF-295 CNS
SF-539 CNS = system: SF-539 CNS
SK-MEL-2 melanoma = system: SK-MEL-2 melanoma
SK-MEL-28 melanoma = system: SK-MEL-28 melanoma
SK-MEL-5 melanoma = system: SK-MEL-5 melanoma
SK-OV-3 ovarian = system: SK-OV-3 ovarian
SN12C renal = system: SN12C renal
SNB-19 CNS = system: SNB-19 CNS
SNB-75 CNS = system: SNB-75 CNS
SR leukemia = system: SR leukemia
SW-620 colon = system: SW-620 colon
T-47D breast = system: T-47D breast
TK-10 renal = system: TK-10 renal
U251 CNS = system: U251 CNS
UACC-257 melanoma = system: UACC-257 melanoma
UACC-62 melanoma = system: UACC-62 melanoma
UO-31 renal = system: UO-31 renal

How did the TGI (NCI-H226 lung) turn out when C[C@@H](Nc1c(C#N)cnc2ccc(-c3cnc(N)nc3)cc12)c1ccccc1 was run?
Its TGI is 12.7 µM.

What about the GI50 (NCI-H460 lung) of the same compound?
The GI50 was 1.73 µM.

What about the TGI (NCI-H460 lung) of the same compound?
Its TGI is 44.6 µM.

And the GI50 (NCI-H522 lung)?
Its GI50 is 1.73 µM.

And the TGI (NCI-H522 lung)?
The TGI was 10.6 µM.

And the GI50 (NCI/ADR-RES ovarian)?
The GI50 was 2.87 µM.

What about the TGI (NCI/ADR-RES ovarian) of the same compound?
The TGI was 18.1 µM.

And the GI50 (OVCAR-3 ovarian)?
The GI50 was 2.74 µM.

What about the TGI (OVCAR-3 ovarian) of the same compound?
The TGI was > 100 µM.

And the GI50 (OVCAR-4 ovarian)?
The GI50 was 1.22 µM.

What about the TGI (OVCAR-4 ovarian) of the same compound?
Its TGI is 7.87 µM.

And the GI50 (OVCAR-5 ovarian)?
Its GI50 is 1.62 µM.

What about the TGI (OVCAR-5 ovarian) of the same compound?
The TGI was 83.8 µM.

And the GI50 (OVCAR-8 ovarian)?
The GI50 was 2.5 µM.

What about the TGI (OVCAR-8 ovarian) of the same compound?
Its TGI is 24 µM.

And the GI50 (PC-3 prostate)?
Its GI50 is 1.54 µM.

And the TGI (PC-3 prostate)?
The TGI was 10.1 µM.

And the GI50 (RPMI-8226 leukemia)?
The GI50 was 0.588 µM.

And the TGI (RPMI-8226 leukemia)?
The TGI was 4.92 µM.

What about the GI50 (RXF 393 renal) of the same compound?
The GI50 was 0.886 µM.

What about the TGI (RXF 393 renal) of the same compound?
The TGI was 4.59 µM.

And the GI50 (SF-268 CNS)?
The GI50 was 3.22 µM.

And the TGI (SF-268 CNS)?
Its TGI is > 100 µM.

And the GI50 (SF-295 CNS)?
The GI50 was 1.38 µM.

What about the TGI (SF-295 CNS) of the same compound?
Its TGI is 7.45 µM.

What about the GI50 (SF-539 CNS) of the same compound?
Its GI50 is 2.21 µM.

What about the TGI (SF-539 CNS) of the same compound?
The TGI was 12.8 µM.

What about the GI50 (SK-MEL-2 melanoma) of the same compound?
Its GI50 is 1.76 µM.

What about the TGI (SK-MEL-2 melanoma) of the same compound?
The TGI was 5.54 µM.

And the GI50 (SK-MEL-28 melanoma)?
The GI50 was 2.95 µM.

And the TGI (SK-MEL-28 melanoma)?
The TGI was 26.9 µM.

What about the GI50 (SK-MEL-5 melanoma) of the same compound?
The GI50 was 1.84 µM.

What about the TGI (SK-MEL-5 melanoma) of the same compound?
Its TGI is 3.99 µM.

What about the GI50 (SK-OV-3 ovarian) of the same compound?
Its GI50 is 2.16 µM.

And the TGI (SK-OV-3 ovarian)?
The TGI was 7.38 µM.

And the GI50 (SN12C renal)?
The GI50 was 1.14 µM.

And the TGI (SN12C renal)?
The TGI was 24.2 µM.

And the GI50 (SNB-19 CNS)?
Its GI50 is 2.23 µM.

What about the TGI (SNB-19 CNS) of the same compound?
The TGI was 60.6 µM.

What about the GI50 (SNB-75 CNS) of the same compound?
Its GI50 is 1.58 µM.

And the TGI (SNB-75 CNS)?
The TGI was 37.5 µM.

What about the GI50 (SR leukemia) of the same compound?
The GI50 was 2.38 µM.

What about the TGI (SR leukemia) of the same compound?
The TGI was > 100 µM.

And the GI50 (SW-620 colon)?
The GI50 was 3.73 µM.

What about the TGI (SW-620 colon) of the same compound?
The TGI was > 100 µM.

What about the GI50 (T-47D breast) of the same compound?
The GI50 was 0.907 µM.

What about the TGI (T-47D breast) of the same compound?
The TGI was 7.86 µM.

And the GI50 (TK-10 renal)?
Its GI50 is 0.289 µM.

What about the TGI (TK-10 renal) of the same compound?
The TGI was 3.45 µM.

And the GI50 (U251 CNS)?
The GI50 was 2.13 µM.

And the TGI (U251 CNS)?
Its TGI is 77.5 µM.

What about the GI50 (UACC-257 melanoma) of the same compound?
The GI50 was 2.79 µM.

And the TGI (UACC-257 melanoma)?
Its TGI is 17.1 µM.

And the GI50 (UACC-62 melanoma)?
The GI50 was 2.24 µM.

And the TGI (UACC-62 melanoma)?
The TGI was 10 µM.

And the GI50 (UO-31 renal)?
The GI50 was 0.31 µM.

And the TGI (UO-31 renal)?
Its TGI is 8.9 µM.
